Test results reported in PubChem BioAssay AID2060497 (Molecular Pharmacology Branch, DTP, NCI, 2025).
Where “and” joins values, the source holds several entries; their conditions need not be identical. Equal values may be shown once.

Test system: 317291-083-R-J1-PDC complex spheroids, viability
Test: Anticancer human tumor 317291-083-R-J1-PDC patient-derived soft tissue sarcoma cell line growth inhibition [GQUAD]
Details: for viability, T/C: stronger effect = lower value
Excerpt: DNA G-quadruplex Stabilizer Agents in Combinations in Complex Spheroids
A high-throughput screen of multi-cell type tumor spheroids was designed to identify active combinations of DNA G-quadruplex stabilizer agents and targeted small molecules. Complex spheroids include a stromal component modeled by human endothelial cells (HUVEC) and fibroblasts modeled by human mesenchymal stem cells (MSCs). The concentration ranges selected for each drug and investigational agent were based upon clinically achievable concentrations if the clinical Cmax of the agent was known.
Compounds. The drugs and investigational agents: pidnarulex (CX-5461; NSC782164), APTO-253 (NSC789042), BRACO-19 (NSC847499), peposertib (NSC802822), ceralasertib (NSC780249), elimusertib (NSC800525), camonsertib (NSC841442), AZD-1390 (NSC803789), olaparib (NSC753686), talazoparib (NSC767125), ART-558 (NSC835418), sotorasib (NSC818433), MRTX-1133 (NSC836407), SN-38 (NSC673596), topotecan (NSC609699), etoposide (NSC141540), doxorubicin (NSC123127), gemcitabine (NSC613327), 5-fluorouracil (NSC19893), paclitaxel (NSC125973), vemurafenib (NSC761431), panobinostat (NSC761190), R-306465 (JNJ-16241199; NSC773264), adavosertib (NSC754352), TP-3654 (NSC805149), carboplatin (NSC241240), KSQ-4279 (NSC840948), and staurosporine (NSC755774) were obtained from the National Cancer Institute (NCI) Developmental Therapeutics Program Chemical Repository (34). The FDA-approved anticancer drug set is available from the NCI Developmental Therapeutics Program. […] The stock solutions were prepared in dimethyl sulfoxide (DMSO, Sigma-Aldrich, St. Louis, MO, cat. D2650) at 800-fold the tested concentration and stored at -70 degrees C prior to their use. All drugs and investigational agents were tested over a range starting from a high concentration at or near the clinical Cmax and decreasing in half-log increments. If the clinical Cmax for an agent had not been determined, the highest concentration tested was 10 microM.
2.3 Cell Culture. All cells were maintained in an incubator at 37 degrees C and 5% CO2 with 95% humidity. The PDC lines were cultured according to standard operating procedures established by the NCI PDMR. All PDCs were thawed and cultured in Matrigel-coated flasks prepared with a working solution of 1X Ham's F-12 nutrient mix, without supplementation (Invitrogen, cat. 11765054), 100 U/mL penicillin-streptomycin (Invitrogen, cat. 15140122), and 2.5% Matrigel (Corning Inc., cat. 354248) for the first three passages. The 857933-349-R-J2-PDC line was cultured in 6C/Colon 1B media, which includes advanced DMEM/F-12 (Thermo Fisher Scientific, cat. 12634028), 10 mM HEPES (Thermo Fisher Scientific, cat. 15630080), 1X GlutaMAX supplement (Thermo Fisher Scientific, cat. 35050061), 0.1 mg/mL primocin (InvivoGen, cat. ant-pm-2), 10% defined fetal bovine serum, heat inactivated (HyClone Laboratories Inc., cat. SH30070.03HI), 50% L-WRN conditioned media (ATCC, cat. CRL-3276), 1.25 mM N-Acetyl-L-cysteine (Sigma-Aldrich, cat. A9165), 10 mM nicotinamide (Sigma-Aldrich, cat. N0636), 1X B-27 supplement (Thermo Fisher Scientific, cat. 17504044), 1X N-2 supplement (Thermo Fisher Scientific, cat. 17502048), 10 microM Y-27632 dihydrochloride (Tocris Bioscience, cat. 1254), and 50 ng/mL human EGF recombinant protein (Thermo Fisher Scientific, cat. PHG0311). The 485176-168-R4-J1-PDC line was cultured in Panc media, which includes all 6C/Colon 1B media components plus 100 ng/mL human FGF-10 (Thermo Fisher Scientific, cat. 100-26), 500 nM SB-431542 (Selleckchem, cat. S1067), and gastrin (Tocris, cat. 3006).
[…]

[1] = curve of first compound, second compound 0.0316 µM
[2] = curve of first compound, second compound 0.1 µM
[3] = curve of first compound, second compound 0.316 µM
[4] = curve of first compound, second compound 1 µM
[5] = curve of first compound, second compound 3.16 µM
[6] = curve of first compound, second compound 10 µM
[7] = second compound 0.0316 µM, first compound 0.0316 µM
[8] = second compound 0.0316 µM, first compound 0.1 µM
[9] = second compound 0.0316 µM, first compound 0.316 µM
[10] = second compound 0.0316 µM, first compound 1 µM
[11] = second compound 0.0316 µM, first compound 3.16 µM
[12] = second compound 0.0316 µM, first compound 10 µM
[13] = second compound 0.1 µM, first compound 0.0316 µM
[14] = second compound 0.1 µM, first compound 0.1 µM
[15] = second compound 0.1 µM, first compound 0.316 µM
[16] = second compound 0.1 µM, first compound 1 µM
[17] = second compound 0.1 µM, first compound 3.16 µM
[18] = second compound 0.1 µM, first compound 10 µM
[19] = second compound 0.316 µM, first compound 0.0316 µM
[20] = second compound 0.316 µM, first compound 0.1 µM
[21] = second compound 0.316 µM, first compound 0.316 µM
[22] = second compound 0.316 µM, first compound 1 µM
[23] = second compound 0.316 µM, first compound 3.16 µM
[24] = second compound 0.316 µM, first compound 10 µM
[25] = second compound 1 µM, first compound 0.0316 µM
[26] = second compound 1 µM, first compound 0.1 µM
[27] = second compound 1 µM, first compound 0.316 µM
[28] = second compound 1 µM, first compound 1 µM
[29] = second compound 1 µM, first compound 3.16 µM
[30] = second compound 1 µM, first compound 10 µM
[31] = second compound 3.16 µM, first compound 0.0316 µM
[32] = second compound 3.16 µM, first compound 0.1 µM
[33] = second compound 3.16 µM, first compound 0.316 µM
[34] = second compound 3.16 µM, first compound 1 µM
[35] = second compound 3.16 µM, first compound 3.16 µM
[36] = second compound 3.16 µM, first compound 10 µM
[37] = second compound 10 µM, first compound 0.0316 µM
[38] = second compound 10 µM, first compound 0.1 µM
[39] = second compound 10 µM, first compound 0.316 µM
[40] = second compound 10 µM, first compound 1 µM
[41] = second compound 10 µM, first compound 3.16 µM
[42] = second compound 10 µM, first compound 10 µM
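Also: spheroids exposed to compounds for one week before readout.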
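For viability, T/C in this document: percent viability relative to DMSO vehicle wells taken as 100%.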

CC1COCCN1c1cc(C2(O)CC3CCC(C2)O3)c2cnn(-c3ccn[nH]3)c2n1 (stereo not drawn) + Cc1[nH]c2ccc(F)cc2c1-c1nc2c3cccnc3c3ncccc3c2[nH]1
IC50 [1]: 0.0714 µM | IC50 [2]: 0.0547 µM | IC50 [3]: 0.0392 µM | IC50 [4]: 0.0517 µM | IC50 [5]: 0.0502 µM | IC50 [6]: 0.0337 µM | viability, T/C [7]: 84.1% | viability, T/C [8]: 34.8% | viability, T/C [9]: 16% | viability, T/C [10]: 22.8% | viability, T/C [11]: 13.2% | viability, T/C [12]: 3.15% | viability, T/C [13]: 68.5% | viability, T/C [14]: 29.5% | viability, T/C [15]: 13.9% | viability, T/C [16]: 12.8% | viability, T/C [17]: 10.4% | viability, T/C [18]: 3.93% | viability, T/C [19]: 55.7% | viability, T/C [20]: 27.9% | viability, T/C [21]: 14.8% | viability, T/C [22]: 20.1% | viability, T/C [23]: 12.1% | viability, T/C [24]: 3.04% | viability, T/C [25]: 66.4% | viability, T/C [26]: 26.4% | viability, T/C [27]: 18.6% | viability, T/C [28]: 10.8% | viability, T/C [29]: 11.3% | viability, T/C [30]: 2.71% | viability, T/C [31]: 69.7% | viability, T/C [32]: 20.4% | viability, T/C [33]: 10.7% | viability, T/C [34]: 14.3% | viability, T/C [35]: 7.98% | viability, T/C [36]: 2.88% | viability, T/C [37]: 52.3% | viability, T/C [38]: 18.9% | viability, T/C [39]: 14% | viability, T/C [40]: 13.8% | viability, T/C [41]: 10.7% | viability, T/C [42]: 3.52%

C=CCn1c(=O)c2cnc(Nc3ccc(N4CCN(C)CC4)cc3)nc2n1-c1cccc(C(C)(C)O)n1
viability, T/C (compound 0.0316 µM): 76.4% and 96.2% and 111% | viability, T/C (compound 0.1 µM): 59.4% and 51.4% and 83.7% | viability, T/C (compound 0.316 µM): 26.6% (2×) and 41.3% | viability, T/C (compound 1 µM): 17.6% and 13.5% and 23.8% | viability, T/C (compound 3.16 µM): 8.54% and 7.89% and 17.9% | viability, T/C (compound 10 µM): 9.53% and 9.94% and 16.1% | IC50 (curve of compound): 0.138 µM and 0.108 µM and 0.253 µM

COc1cccc2c1C(=O)c1c(O)c3c(c(O)c1C2=O)CC(O)(C(=O)CO)CC3OC1CC(N)C(O)C(C)O1 (stereo not drawn)
viability, T/C (compound 0.0316 µM): 77.5% and 82.5% and 86.8% | viability, T/C (compound 0.1 µM): 35% and 28.7% and 27.3% | viability, T/C (compound 0.316 µM): 20% and 26.3% and 22.3% | viability, T/C (compound 1 µM): 8.85% and 15.2% and 15.3% | viability, T/C (compound 3.16 µM): 3.09% and 0.8% and 0.76% | viability, T/C (compound 10 µM): 4.03% and 0.72% and 2.93% | IC50 (curve of compound): 0.0684 µM and 0.0715 µM and 0.0693 µM

CC(C)(O)C1CCC(Nc2ccc3ncc(-c4cccc(C(F)(F)F)c4)n3n2)CC1 (stereo not drawn) + CN(C)c1ccc(Nc2c3ccc(NC(=O)CCN4CCCC4)cc3nc3cc(NC(=O)CCN4CCCC4)ccc23)cc1
IC50 [1]: 0.789 µM | IC50 [2]: 0.691 µM | IC50 [3]: 0.455 µM | IC50 [4]: 0.0447 µM | IC50 [5]: < 0.0316 µM | IC50 [6]: < 0.0316 µM | viability, T/C [7]: 103% | viability, T/C [8]: 106% | viability, T/C [9]: 99.8% | viability, T/C [10]: 37.1% | viability, T/C [11]: 0.9% | viability, T/C [12]: 0.94% | viability, T/C [13]: 97.5% | viability, T/C [14]: 92.2% | viability, T/C [15]: 102% | viability, T/C [16]: 27.6% | viability, T/C [17]: 0.49% | viability, T/C [18]: 0.46% | viability, T/C [19]: 65.9% | viability, T/C [20]: 65.7% | viability, T/C [21]: 72% | viability, T/C [22]: 11.3% | viability, T/C [23]: 0.66% | viability, T/C [24]: 0.64% | viability, T/C [25]: 59.3% | viability, T/C [26]: 25.4% | viability, T/C [27]: 28.7% | viability, T/C [28]: 3.69% | viability, T/C [29]: 0.2% | viability, T/C [30]: 0.13% | viability, T/C [31]: 5.54% | viability, T/C [32]: 1.6% | viability, T/C [33]: 6.22% | viability, T/C [34]: 0.39% | viability, T/C [35]: 0.12% | viability, T/C [36]: 0.29% | viability, T/C [37]: 0.6% | viability, T/C [38]: 0.45% | viability, T/C [39]: 0.27% | viability, T/C [40]: 0.46% | viability, T/C [41]: 0.22% | viability, T/C [42]: 0.31%
